Laboratory results: article PMC11335189, “Revealing molecular determinants governing mambalgin-3 pharmacology at acid-sensing ion channel 1 variants” (Cellular and Molecular Life Sciences: CMLS, 2024)
Positions of bridges follow the written chain, without caps; N, C: chain ends. No end group written: not given here.

Assays:
[1] = molecular target: T1, rASIC1b C208Q (Rattus norvegicus, UniProt P55926, C208Q); test: TEVC oocytes, rASIC1b C208Q mutant; type: cell-based
T1 construct: expressed in transfected cells; host or cells: Xenopus laevis oocytes (cRNA injection)
T1 sequence (P55926 1-559 isoform P55926-3 C208Q): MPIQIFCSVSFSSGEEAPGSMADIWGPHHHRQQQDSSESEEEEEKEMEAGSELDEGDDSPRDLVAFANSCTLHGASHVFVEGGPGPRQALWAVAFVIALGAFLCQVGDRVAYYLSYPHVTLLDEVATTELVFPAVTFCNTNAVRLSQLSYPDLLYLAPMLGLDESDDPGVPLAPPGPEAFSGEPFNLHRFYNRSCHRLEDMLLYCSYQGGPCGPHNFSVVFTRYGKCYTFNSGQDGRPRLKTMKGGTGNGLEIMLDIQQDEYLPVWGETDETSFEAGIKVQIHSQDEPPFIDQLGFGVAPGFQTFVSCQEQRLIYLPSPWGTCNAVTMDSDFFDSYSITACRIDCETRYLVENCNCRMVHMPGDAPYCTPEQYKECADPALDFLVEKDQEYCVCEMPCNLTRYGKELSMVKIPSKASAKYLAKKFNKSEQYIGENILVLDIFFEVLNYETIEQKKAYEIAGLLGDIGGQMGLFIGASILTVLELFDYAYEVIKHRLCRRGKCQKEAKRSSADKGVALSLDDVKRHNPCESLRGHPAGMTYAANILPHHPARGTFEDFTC
Protocol: (§1) Two-electrode voltage-clamp (TEVC) experiments using Xenopus laevis oocytes were conducted as previously described. Briefly, oocytes were surgically removed from anaesthetised female frogs, then treated with collagenase (~ 1 mg/ml, Sigma type I) for 2 h under agitation at room temperature. cRNAs were synthesised using a mMessage mMachine T7 or SP6 transcription kit (Thermo Fisher Scientific Australia Pty Ltd, Scoresby, VIC, Australia) and injected into healthy stage V–VI oocytes at 0.2–20 ng per cell. […] Membrane currents were recorded 2–7 days after cRNA-injection under voltage-clamp at -60 mV (Axon Axoclamp 900 A, Molecular Devices, CA, USA) using two standard glass microelectrodes of 0.5–1 MΩ resistance when filled with 3 M KCl solution. […]
(§2) Specific to this work, the standard protocol was for oocytes to be conditioned at pH 7.45 and channels stimulated every 60 s using a 5 s pH 5 or 6 application, unless stated otherwise. […] Activation curves were determined by conditioning oocytes at pH 8 (Fig. 2e − g; and Fig. 5a and b) or 7.45 (Fig. 6; and Supplementary Fig. 2d and c) for 55 s and applying low pH stimuli from 7.25 to 5.0 for 5 s. Steady-state desensitisation (SSD) was determined by applying conditioning solutions of pH values from 8 to 6 for 115 s prior to stimulation by a pH drop to 5 for 5 s. […] Control pH-dependence curves were determined in the absence of any Ma-3. […]

[2] = molecular target: T2, rASIC1a E362R (Rattus norvegicus, UniProt P55926, E362R); test: TEVC oocytes, rASIC1a E362R mutant; type: cell-based; conditions: conditioning pH 7.45, stimulating pH 6
T2 construct: expressed in transfected cells; host or cells: Xenopus laevis oocytes (cRNA injection)
T2 sequence (P55926 1-526 E362R): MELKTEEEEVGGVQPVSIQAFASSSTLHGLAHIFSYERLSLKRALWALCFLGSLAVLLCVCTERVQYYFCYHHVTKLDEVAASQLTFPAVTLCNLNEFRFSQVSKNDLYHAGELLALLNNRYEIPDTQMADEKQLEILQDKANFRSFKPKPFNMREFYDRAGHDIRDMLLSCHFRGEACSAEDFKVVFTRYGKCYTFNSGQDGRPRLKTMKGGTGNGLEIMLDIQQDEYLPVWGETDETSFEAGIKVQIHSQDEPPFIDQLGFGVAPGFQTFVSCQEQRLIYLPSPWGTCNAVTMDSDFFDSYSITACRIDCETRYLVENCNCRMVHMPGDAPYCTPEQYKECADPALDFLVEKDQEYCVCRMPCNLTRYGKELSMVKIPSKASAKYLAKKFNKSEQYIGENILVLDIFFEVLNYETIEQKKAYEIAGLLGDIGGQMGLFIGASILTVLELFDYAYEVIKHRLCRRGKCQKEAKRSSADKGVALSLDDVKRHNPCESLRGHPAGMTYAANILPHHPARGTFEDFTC
Protocol: as §1, §2

Substance: H-SLKCYQHGKVVTCHRDMKFCYHNIGMPFRNLKLILQGCSSSCSETENNKCCSTDRCNK (disulfide 4-20, 13-38, 42-50, 51-56 (inferred)) [Ma-3, mambalgin-3]
- pH50 of activation in presence of Ma-3 ([1]; 300 nM Ma-3, conditioning pH 7.45, Hill fit, n = 5–6): 6.27
- Hill slope (95% CI) ([1]; conditioning pH 7.45, pH 6 evoked currents, potentiation, 95% CI): 1.26–2.01
- decrease in Ma-3 activity relative to wild-type rASIC1a [2]: ~ 5 fold
